One compound from PMC8208785, “Therapeutic efficacy of novel memantine nitrate MN‐08 in animal models of Alzheimer’s disease” (Aging Cell, 2021) can be followed below.

One assay deals with APP/PS1 mice. Description: Western blotting and NeuN staining in hippocampi of APP/PS1 mice (Tau, synapse and apoptosis proteins). In kind it is in vivo. Conditions: MN‐08 6 mg/kg. Here is the method:
APP/PS1 transgenic mice were purchased from Jackson Laboratory and reproduced in the Shenzhen Center for Disease Control and Prevention (Shenzhen, China). Two‐month‐old APP/PS1 mice were divided into four groups: (1) APP/PS1 + Vehicle group; (2) APP/PS1 + MN‐08 (6 mg/kg) group; (3) APP/PS1 + Memantine (Mem, 5 mg/kg) group; (4) APP/PS1 + Donepezil (Done, 1.3 mg/kg, once daily) group; (5) Two‐month‐old C57BL/6J mice as a control group. The APP/PS1 mice were administered drugs twice a day (Done, once daily) by gastric gavage from ages 2 to 8 months for 6 months successively. Control and vehicle groups received equal volumes of saline.
Immunohistochemistry and immunofluorescence staining were carried out as previously described (Zhang et al., 2017). Coronal brain sections were incubated with […] sodium citrate (pH 6.0) and heated for 15 min. After cooling to room temperature, the sections were immersed in 3 % H2O2 for 10 min followed by blocking solution (10 % fetal bovine serum, 1 % bovine serum albumin and 0.1 % Triton X-100) for 1 h. Sections were then incubated with the following appropriate primary antibodies overnight at 4°C: anti-Aβ1-42 antibody (#ab10148, 1:1000, Abcam), anti-Aβ1-16 antibody (#803014, 1:1000, Abcam) and anti-NeuN antibody (#ab177487, 1:400, Abcam). After rinsing 3 times, the sections of immunohistochemistry staining were incubated with biotin-conjugated universal secondary antibody (Gene Tech, Shanghai, China). For immunofluorescence staining, the sections were incubated with appropriate secondary antibodies for 2 h at room temperature. Image J software was used to analyze the fluorescence intensity and cell counting from six slices at similar coronal positions of each animal; this was performed by a viewer blinded to the experimental group.
Western blotting analysis was performed as previously described with minor modifications (Huang, Li, & Nan, 2017). Proteins were extracted from hippocampal tissue and their concentrations determined by the BCA protein assay kit (Fdbio science, Hangzhou, China). The protein (20 μg) was separated on a 12% SDS-PAGE gel and then transferred to PVDF membranes. The membranes were blocked using 5 % nonfat dry milk for 2 h. The protein blots were incubated with the corresponding primary antibodies against p-Akt (#4060, 1:1000, Cell Signaling Technology), Akt (#4685, 1:1000, Cell Signaling Technology), BACE1 (#5606, 1:1000, Cell Signaling Technology), PS1 (#5643, 1:1000, Cell Signaling Technology), p-GSK3β (#5558, 1:1000, Cell Signaling Technology), GSK3β (#12456, 1:1000, Cell Signaling Technology), Bcl-2 (#3498, 1:1000, Cell Signaling Technology), Bax (#5023, 1:1000, Cell Signaling Technology), Cleaved caspase-3 (#9661, 1:1000, Cell Signaling Technology), Caspase-3 (#9662, 1:1000, Cell Signaling Technology), ADAM10 (#14194, 1:1000, Cell Signaling Technology), APP (#ab241592, 1:1000, Abcam), sAPPα (#ab126723, 1:1000, Abcam), NEP (#ab216341, 1:1000, Abcam), Synapsin I (#ab64581, 1:1000, Abcam), Synapsin II (#ab76494, 1:1000, Abcam), NR2A (#ab124913, 1:2000, Abcam), PSD95 (#ab18258, 1:1000, Abcam), Synaptophysin (#ab32127, 1:1000, Abcam), IDE (#ab133561, 1:1000, Abcam), Drebin (#ab178408, 1:1000, Abcam) and Tau-5 (#ab80579, 1:2000, Abcam) overnight at 4°C. After washing 3 times, the membranes were incubated with the respective HRP-conjugated secondary antibody. […] Quantitative analysis of protein bands was conducted by the Carestream system (Carestream Health, Inc, USA).
A general note: A western blot detects proteins with antibodies after separation by electrophoresis.

For a further assay, the system named is 3×Tg‐AD mice. Nature of the assay: Aβ ELISA and Western blotting of APP-processing proteins in 3×Tg-AD mice. In kind it is in vivo. The protocol: Triple transgenic 3×Tg‐AD mice were acquired from Jackson Laboratory and fostered in the Shenzhen Center for Disease Control and Prevention (Shenzhen, China). Eight‐month‐old 3×Tg‐AD mice were categorized into six groups: (1) 3×Tg‐AD +Vehicle group; (2) 3×Tg‐AD +MN‐08 (3 mg/kg) group; (3) 3×Tg‐AD +MN‐08 (6 mg/kg) group; (4) 3×Tg‐AD +MN‐08 (12 mg/kg) group; (5) 3×Tg‐AD +Memantine (Mem, 5 mg/kg) group; (6) 3×Tg‐AD +Donepezil (Done, 1.3 mg/kg, once daily) group; (7) Eight‐month‐old B6129SF2/J mice as a control group. MN‐08 and memantine were given twice daily (Done, once daily) by gastric gavage for 4 months from 8 months of age.
To evaluate the concentration of soluble and insoluble Aβ in AD mice, the hippocampus and cortex were homogenized in the lysate, which was then centrifuged at 12000 g for 30 min at 4°C. Supernatant samples were collected as soluble Aβ. Sediment of the cortex and hippocampus was resuspended with formic acid, incubated on ice for 60 min and then centrifuged at 12,000 g for 30 min at 4°C. The supernatant and Tris/NaH2PO4 buffer were mixed as insoluble Aβ. The concentration of Aβ was analyzed by ELISA kit of human amyloid β (R&D Systems, Minneapolis, MN, USA) following the manufacturer’s instructions.
Western blotting analysis was performed as previously described with minor modifications (Huang, Li, & Nan, 2017). Proteins were extracted from hippocampal tissue and their concentrations determined by the BCA protein assay kit (Fdbio science, Hangzhou, China). The protein (20 μg) was separated on a 12% SDS-PAGE gel and then transferred to PVDF membranes. The membranes were blocked using 5 % nonfat dry milk for 2 h. The protein blots were incubated with the corresponding primary antibodies against p-Akt (#4060, 1:1000, Cell Signaling Technology), Akt (#4685, 1:1000, Cell Signaling Technology), BACE1 (#5606, 1:1000, Cell Signaling Technology), PS1 (#5643, 1:1000, Cell Signaling Technology), p-GSK3β (#5558, 1:1000, Cell Signaling Technology), GSK3β (#12456, 1:1000, Cell Signaling Technology), Bcl-2 (#3498, 1:1000, Cell Signaling Technology), Bax (#5023, 1:1000, Cell Signaling Technology), Cleaved caspase-3 (#9661, 1:1000, Cell Signaling Technology), Caspase-3 (#9662, 1:1000, Cell Signaling Technology), ADAM10 (#14194, 1:1000, Cell Signaling Technology), APP (#ab241592, 1:1000, Abcam), sAPPα (#ab126723, 1:1000, Abcam), NEP (#ab216341, 1:1000, Abcam), Synapsin I (#ab64581, 1:1000, Abcam), Synapsin II (#ab76494, 1:1000, Abcam), NR2A (#ab124913, 1:2000, Abcam), PSD95 (#ab18258, 1:1000, Abcam), Synaptophysin (#ab32127, 1:1000, Abcam), IDE (#ab133561, 1:1000, Abcam), Drebin (#ab178408, 1:1000, Abcam) and Tau-5 (#ab80579, 1:2000, Abcam) overnight at 4°C. After washing 3 times, the membranes were incubated with the respective HRP-conjugated secondary antibody. ECL Western blotting Detection Reagents (Fdbio science, Hangzhou, China) were used to perform Chemiluminescence detection. Quantitative analysis of protein bands was conducted by the Carestream system (Carestream Health, Inc, USA).

Setting [1] is: MN‐08 6 mg/kg, hippocampi, Western blot.

As for `CCC12CC3CC(N)(C1)CC(CO[N+](=O)[O-])(C3)C2` (stereo not shown) [MN‐08], in the assay on APP/PS1 mice (prevention study), the “Tau hyperphosphorylation in the hippocampi” value is “consistently suppressed”; the “expression of synapse‐related proteins (SYP, PSD95, SYN I, SYN II, drebrin)” value is recorded as “reversal of the depressed expression”; the “neuronal loss in the hippocampus (NeuN)” value is listed as “prevented”. Further, in the assay with APP/PS1 mice (hippocampi), the “expression ratio of Bcl‐2/Bax” value is on record as “upregulating” and the “expression ratio of cleaved Caspase‐3 to Caspase‐3” value is reported as “downregulating”. Besides, the “Aβ accumulation (ELISA)” value with 3×Tg‐AD mice (MN‐08 6 mg/kg, hippocampal and cortical areas) is given as “significant reduction”. For the same compound, in the assay on 3×Tg‐AD mice (setting [1]), the “expression of total APP” value is on record as “significantly decreased”; the “expression of α‐secretase (ADAM10) and neprilysin (NEP)” value is on record as “enhanced”; the “levels of sAPPα” value is reported as “increasing”. The “expression of IDE, PS1, or BACE1” value in the assay on 3×Tg‐AD mice (hippocampi, Western blot) is listed as “no effect”.
